# Reference: PubChem BioAssay (NCI)
# Where “and” joins values, the source holds several entries; their conditions need not be identical. Equal values may be shown once.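 Exposure lasted 48 hours, with cells grown in 96-well plates and compounds tested at five concentrations. The concentration for 50% growth inhibition is given as GI50. TGI marks complete inhibition of growth.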
# Experiments:
# Experiment in all cases: NCI anticancer screen, dose series, 48 h
# EKVX NSCLC = system: EKVX NSCLC
# HOP-62 NSCLC = system: HOP-62 NSCLC
# SF-539 CNS = system: SF-539 CNS
# 786-0 renal = system: 786-0 renal
# ACHN renal = system: ACHN renal
# COLO 205 colon = system: COLO 205 colon
# LOX IMVI melanoma = system: LOX IMVI melanoma
# RPMI-8226 leukemia = system: RPMI-8226 leukemia
# M14 melanoma = system: M14 melanoma
# PC-3 prostate = system: PC-3 prostate
SMILES,GI50 (EKVX NSCLC),TGI (EKVX NSCLC),GI50 (HOP-62 NSCLC),TGI (HOP-62 NSCLC),GI50 (SF-539 CNS),TGI (SF-539 CNS),GI50 (786-0 renal),TGI (786-0 renal),GI50 (ACHN renal),TGI (ACHN renal),GI50 (COLO 205 colon),TGI (COLO 205 colon),GI50 (LOX IMVI melanoma),TGI (LOX IMVI melanoma),GI50 (RPMI-8226 leukemia),TGI (RPMI-8226 leukemia),GI50 (M14 melanoma),TGI (M14 melanoma),GI50 (PC-3 prostate),TGI (PC-3 prostate)
CN(CCO)c1ccc(N2Cc3ccccc3OC3=C2C(=O)c2c(O)ccc(O)c2C3=O)cn1,0.284 µM,1.45 µM,0.508 µM,1.79 µM,0.214 µM,0.524 µM,0.245 µM,0.74 µM,0.0462 µM,0.179 µM,0.133 µM,0.302 µM,0.114 µM,0.33 µM,0.227 µM,0.713 µM,0.192 µM,0.409 µM,0.296 µM,0.888 µM
O=S(=O)(Nc1ccc(F)cc1F)c1ccc(-c2cnc(C3CC3)o2)cc1,1.44 µM,> 73 µM,0.724 µM,47.6 µM,0.674 µM,5.71 µM,0.906 µM,63 µM,1.62 µM,31.2 µM,0.767 µM,17.1 µM,0.588 µM,22 µM,0.828 µM,29.8 µM,0.376 µM,> 59.9 µM,0.897 µM,> 50.1 µM
CC[C@H]1CN2CCc3cc(OC)c(OC)cc3[C@@H]2C[C@@H]1C[C@H]1NCCc2c1[nH]c1ccc(O)cc21,0.0409 µM,0.401 µM and 0.125 µM,0.0264 µM and 0.0298 µM,0.0748 µM and 0.0941 µM and 0.0488 µM,0.0211 µM and 0.0232 µM,0.0476 µM and 0.0513 µM and 0.0408 µM,0.0246 µM and 0.0421 µM,,0.0782 µM and 0.121 µM,0.57 µM and 0.511 µM and 1.5 µM,0.019 µM and 0.0187 µM,0.0339 µM and 0.0347 µM and < 0.0117 µM,0.00434 µM and 0.0207 µM,0.0223 µM and 0.0902 µM and < 0.0107 µM,0.0272 µM and 0.0305 µM,,0.0365 µM and 0.0275 µM,0.162 µM and 0.0729 µM and 0.0478 µM,0.0345 µM,0.814 µM
NC(=O)OCCn1cc(-c2nc(-c3c[nH]c4ncccc34)cs2)c2ccccc21,1.3 µM,7.68 µM,1.07 µM,7.87 µM,1.61 µM,4.5 µM,2.38 µM,7.23 µM,2.05 µM,8.24 µM,2.06 µM,9.57 µM,1.55 µM,4.11 µM,2.04 µM,8.03 µM,1.33 µM,4.53 µM,1.87 µM,14.6 µM
NCCSc1nc(-c2ccccc2)c(-c2ccccc2)o1,,> 100 µM,,> 100 µM,,> 100 µM,,> 100 µM,,> 100 µM,,> 100 µM,,> 100 µM,,> 100 µM,,> 100 µM,,> 100 µM
CN1C(=O)/C(=C/c2c(Cl)n(C)c3ccccc23)c2ccccc21,2.11 µM,6.03 µM,2.99 µM,8.96 µM,,,3.09 µM,,4.85 µM and 1.7 µM,3.11 µM,4.59 µM and 0.485 µM,1.63 µM,4.79 µM,,1.53 µM,3.94 µM,2.81 µM and 1.32 µM,2.8 µM,2.67 µM,
C1=C\COCc2cc(ccc2OCCN2CCCC2)Nc2nccc(n2)-c2cccc(c2)COC/1,2.76 µM,7.73 µM,2.47 µM,6.56 µM,3.11 µM,5.71 µM,3.51 µM,5.18 µM,1.12 µM,4.8 µM,1.35 µM,4.29 µM,0.847 µM,2.88 µM,3.12 µM,6.35 µM,1.75 µM,4.72 µM,1.61 µM,5.43 µM
O[C@H](c1cc(C(F)(F)F)nc2c(C(F)(F)F)cccc12)[C@@H]1CCCCN1,4.32 µM,17.3 µM,4.73 µM,11.8 µM,6.43 µM,15 µM,4.68 µM,12.5 µM,2.82 µM,10.7 µM,1.98 µM,4.27 µM,1.51 µM,2.99 µM,11.2 µM,42.8 µM,2.53 µM,6.69 µM,2.08 µM,5.79 µM
CCn1sc2ccccc2c1=O,,38.2 µM,,34.3 µM,,30.8 µM,,6.87 µM,,20.5 µM,,29.3 µM,,7.73 µM,,> 100 µM,,12 µM,,29.3 µM
COc1cc2c3c(n(CCCOC(=O)C(F)(F)F)c(=O)c2cc1OC)-c1cc2c(cc1C3=O)OCO2,0.612 µM,> 63.8 µM,< 0.01 µM,< 0.0329 µM,< 0.01 µM,0.0699 µM,< 0.01 µM,< 0.0241 µM,< 0.01 µM,,0.519 µM,> 100 µM,< 0.01 µM,0.0371 µM,< 0.01 µM,0.0158 µM,< 0.0123 µM,,0.0532 µM,> 100 µM
Cc1[nH]c(/C=C2\C(=O)Nc3ccccc32)c(C)c1CCC(=O)O,20.9 µM,89.9 µM and 97.4 µM,23.7 µM,> 100 µM,12.3 µM,42.2 µM,44.1 µM,> 100 µM,,> 100 µM,,43 µM and 45.9 µM,23.1 µM,75.9 µM and 89.2 µM,,65 µM and 75.3 µM,17 µM,49.3 µM and 58.8 µM,31.4 µM,> 100 µM
O=C(c1ccc(/C=C/c2n[nH]c3ccccc23)cc1)N1CCNCC1,> 10 µM and 8.5 µM,> 10 µM and 34.6 µM,> 10 µM and 3.63 µM,> 10 µM and 19.3 µM,2.18 µM and 1.83 µM,6.74 µM and 9.92 µM,9.53 µM and 7.98 µM,> 10 µM and 23 µM,> 10 µM and 4.05 µM,> 10 µM and 25.3 µM,3.96 µM and 0.598 µM,> 10 µM and 5.9 µM,1.76 µM and 2.34 µM,3.26 µM and 12.2 µM,4.21 µM and 10.5 µM,> 10 µM and 47.3 µM,1.66 µM and 3.75 µM,3.22 µM and 16.9 µM,5.02 µM and 3.12 µM,> 10 µM and 35.8 µM
N=C(N)c1ccc2nc(-c3cc(CC(=O)N[C@@H](CC(=O)O)C(=O)O)cc(-c4cc(S(N)(=O)=O)ccc4O)c3O)[nH]c2c1,> 100 µM,> 100 µM,> 100 µM,> 100 µM,> 100 µM,> 100 µM,> 100 µM,> 100 µM,> 100 µM,> 100 µM,> 100 µM,> 100 µM,> 100 µM,> 100 µM,> 100 µM,> 100 µM,> 100 µM,> 100 µM,> 100 µM,> 100 µM
